This note sets out measurements from ChEMBL document CHEMBL5107980, “Seeking heterocyclic scaffolds as antivirals against dengue virus” (Eur J Med Chem, 2022).

Values after ≈ are worked out from the molar mass of the structure shown. Some results are limits rather than exact numbers.

Series [1] relates to Dengue virus. Put plainly: Antiviral activity against DENV. The series is classed as functional, organism-based.
The target of series [2] is Genome polyprotein (dengue virus type 2) (UniProt P29990). Put plainly: Inhibition of DENV2 NS2B-NS3 protease at 50 uM using Bz-Nle-Lys-Arg-Arg-AMC as substrate measured after 30 mins by spectrofluorometer analysis relative to control.
Series [3] addresses Genome polyprotein (dengue virus type 2, UniProt P29990). Put plainly: Inhibition of DENV2 NS2B-NS3 protease using Bz-Nle-Lys-Arg-Arg-AMC as substrate measured after 30 mins by spectrofluorometer analysis.
Series [4] relates to Aedes aegypti. Put plainly: Larvicidal activity against Aedes aegypti assessed as mortality rate at 5 ug per mosquito measured after 24 hrs relative to control. It counts as functional. As to conditions: dose 5 µg.
In series [5] the test system is Aedes aegypti. The series is described as follows: Larvicidal activity against Aedes aegypti assessed as lethal dose per mosquito measured for 24 hrs. It counts as functional.
Series [6] concerns dengue virus type 2. The series is described as follows: Antiviral activity against DENV2 infected in African green monkey Vero cells assessed as inhibition of viral replication measured after 48 hrs by RT-PCR analysis. The series is classed as functional, organism-based.
The nature of series [7]: Cytotoxicity against African green monkey Vero cells assessed as cell growth inhibition after 48 hrs by MTT assay. The series is classed as toxicity, cell-based. As to conditions: chlorocebus sabaeus. (In general: Formazan colour is commonly taken as a measure of viable cells.)
A short description of series [8]: Selectivity Index, ratio of CC50 for African green monkey Vero cells to EC50 for antiviral activity against DENV2 infected in African green monkey Vero cells. It counts as toxicity. As to conditions: Vero cells (CC50) and DENV2-infected Vero cells (EC50).
Series [9] can be described thus: Inhibition of DENV-2 NS5 RdRp polymerase expressed in Escherichia coli Rosetta2(DE3) measured after 1 hr by [alpha-32P]UTP-labeled radio-probe based scintillation counter analysis. Also on record: species or system dengue virus type 2.
Series [10] relates to dengue virus type 2. The series is described as follows: Antiviral activity against DENV2 infected in hamster BHK-21 cells assessed as inhibition of virus induced cytopathic effect incubated for 45 mins by plaque formation assay. The series is classed as functional, organism-based. As to conditions: BHK-21, 0.75 h.
Series [11] deals with Genome polyprotein (dengue virus type 2) (UniProt P29990). Put plainly: Inhibition of DENV2 NS2B-NS3 protease at 50 uM using Bz-Nle-Lys-Arg-Arg-AMC as substrate by spectrofluorometer analysis relative to control.
Series [12] relates to dengue virus type 1. The series is described as follows: Antiviral activity against DENV1 infected in hamster BHK-21 cells assessed as inhibition of virus induced cytopathic effect incubated for 45 mins by focus-formation assay. The series is classed as functional, organism-based. As to conditions: BHK-21, 0.75 h. A general note: Protection from cytopathic effect is a common read-out in antiviral testing.

Series [13] relates to Aedes aegypti. The series is described as follows: Larvicidal activity against Aedes aegypti assessed as mortality measured upto 48 hrs. The series is classed as functional. As to conditions: for LC50: Aedes aegypti.
Series [14] concerns dengue virus type 2. Put plainly: Antiviral activity against DENV2. It counts as functional, organism-based.
For series [15], the system named is dengue virus type 4. The series is described as follows: Antiviral activity against DENV4 infected in hamster BHK-21 cells assessed as inhibition of virus induced cytopathic effect incubated for 45 mins by focus-formation assay. As to conditions: BHK-21, 0.75 h. It counts as functional, organism-based.
Series [16] is described as follows: Inhibition of DENV1 (US/Hawaii/1944) RdRP expressed in Escherichia coli Rosetta2(DE3) incubated for 180 mins in presence of ATP,GTP,and UTP by scintillation counter analysis. Also on record: species or system dengue virus type 1.
The nature of series [17]: Inhibition of DENV2 His6-tagged recombinant NGC RdRP expressed in Escherichia coli Rosetta2(DE3) measured after 180 mins in presence of NTP by scintillation counter analysis. Also on record: species or system dengue virus type 2.
Series [18] is described as follows: Inhibition of DENV3 (MY00-22366) RdRP expressed in Escherichia coli Rosetta2(DE3) incubated for 180 mins in presence of ATP,GTP,and UTP by scintillation counter analysis. Also on record: species or system dengue virus type 3.
Series [19] can be described thus: Inhibition of DENV4 (MY01-22713) RdRP expressed in Escherichia coli Rosetta2(DE3) incubated for 180 mins in presence of ATP,GTP,and UTP by scintillation counter analysis. Also on record: species or system dengue virus type 4.
The test system of series [20] is dengue virus type 1. The series is described as follows: Antiviral activity against DENV1 infected in hamster BHK-21 cells assessed as inhibition of virus induced cytopathic effect by viral tox-glo assay. It counts as functional, organism-based.
For series [21], the system named is dengue virus type 2. Put plainly: Antiviral activity against DENV2 infected in hamster BHK-21 cells assessed as inhibition of virus induced cytopathic effect by viral tox-glo assay. It counts as functional, organism-based.
In series [22] the test system is dengue virus type 3. Put plainly: Antiviral activity against DENV3 infected in hamster BHK-21 cells assessed as inhibition of virus induced cytopathic effect by viral tox-glo assay. The series is classed as functional, organism-based.
The test system of series [23] is dengue virus type 4. Put plainly: Antiviral activity against DENV4 infected in hamster BHK-21 cells assessed as inhibition of virus induced cytopathic effect by viral tox-glo assay. It counts as functional, organism-based.
Series [24] deals with dengue virus type 3. The series is described as follows: Antiviral activity against DENV3 infected in African green monkey Vero cells assessed as inhibition of virus induced cytopathic effect incubated for 45 mins by focus-formation assay. As to conditions: 0.75 h. It counts as functional, organism-based.
Series [25] concerns dengue virus type 2. The series is described as follows: Antiviral activity against DENV2 infected in asian tiger mosquito C6/36 cells assessed as inhibition of virus induced cytopathic effect measured after 96 hrs by methylene blue staining based microscopic analysis. It counts as functional, organism-based. As to conditions: C6/36, 96 h.
A short description of series [26]: Cytotoxicity against hamster BHK-21 cells assessed as cell growth inhibition after 48 hrs by MTT assay. The series is classed as toxicity, cell-based, Mesocricetus auratus.
Series [27] is described as follows: Selectivity Index, ratio of CC50 for hamster BHK-21 cells to EC50 for antiviral activity against DENV2 infected in asian tiger mosquito C6/36 cells. As to conditions: BHK-21 cells (CC50) and DENV2-infected C6/36 cells (EC50). The series is classed as toxicity.

A word on the EC50: it is the concentration at which the effect is half-maximal. On to `Oc1cccc(Nc2ccnc3ccc(Br)cc23)c1`, for which a half-maximal response in series [1] (EC50) required 0.63 µM. Broadly, the inhibition is the change of the read-out against control, counted positive when it falls. One may read the IC50 as the midpoint of a concentration-inhibition curve. For `Cc1ccc(S(=O)(=O)Nc2ccc(-c3nnc(SCc4ccccc4C(F)(F)F)o3)cc2)cc1`, the inhibition in series [2] was 80.8%. The molecule also had an IC50 in [3] of 24 µM. Take `O=C1c2ccccc2C(=O)N1CCCSc1nnc(-c2ccc(NS(=O)(=O)c3ccc(C(F)(F)F)cc3)cc2)o1`: the inhibition in series [2] came to 99.9%. For the same molecule, the IC50 in series [3] was 13.9 µM. Turning to `CS(=O)(=O)N1CCN(c2nnc(-c3ccc(Cl)cc3Cl)o2)C1=O`, the Activity in series [4] is 86.7%. The LD50 in series [5] is 2.39 µg.

The CC50 is the concentration giving 50% cytotoxicity. Take `CC(C)CC(=O)c1c(O)c2c(c3c(-c4ccccc4)cc(=O)oc13)OC(C)(C)C=C2` [ISOMAMMEIGIN]: in series [6], the EC50 was 9.6 µg/mL (≈ 23.7 µM). Moreover, the CC50 at 48 h in series [7] was found to be 3150 µg/mL (≈ 7790 µM). Besides, the selectivity ratio in [8] stood at 328.

For `O=C1N/C(=N\c2nnc(-c3cccc(F)c3)s2)S/C1=C\c1c(Cl)cccc1Cl`, in series [9], the IC50 came to 5.8 µM. As for `CS(=O)(=O)N1CCN(c2nnc(-c3ccc(F)cc3)o2)C1=O`, in series [4], the Activity is recorded as 70%.

`FC(F)(F)Oc1ccc(Nc2ccnc(Nc3ccccc3OC(F)(F)F)n2)cc1`: the IC50 in series [10] came to 5 µM.

As to `O=c1c2ccccc2sn1-c1ccccc1O`, in [11], the inhibition amounted to 89%. As to `FC(F)(F)Oc1ccc(Nc2ccnc(Nc3cccc(OC(F)(F)F)c3)n2)cc1`, the IC50 in series [12] turned out to be 4 µM. Consider `CCCc1cc(=O)oc2c(C(=O)CC(C)C)c(O)c(CC=C(C)C)c(O)c12`, for which the EC50 in series [6] is 2.6 µg/mL (≈ 6.98 µM). In addition, the CC50 at 48 h in series [7] is 550 µg/mL (≈ 1480 µM). Moreover, in [8], the selectivity ratio stood at 212. As to `O=c1c2ccccc2sn1-c1ccccc1[N+](=O)[O-]`, in [11], the inhibition was 72%. The term EC90 denotes the concentration needed for an effect of 90%. In series [1], `O=C1N=Cc2ccc(Nc3ccnc4ccc(Br)cc34)cc21` had an EC50 of 0.64 µM and an EC90 of 1.5 µM. Molecule `O=C1c2ccccc2C(=O)N1CCCCSc1nnc(-c2ccc(NS(=O)(=O)c3ccc(C(F)(F)F)cc3)cc2)o1` returned an inhibition in series [2] of 77.6%. For the same molecule, the IC50 in series [3] was 15.1 µM. In the case of `O=c1c2ccccc2sn1-c1c(Cl)cccc1Cl`, the inhibition in series [11] was 94%.

Consider `FC(F)(F)Oc1cccc(Nc2nccc(Nc3ccc(C(F)(F)F)cc3)n2)c1`, for which, in series [10], the IC50 was found to be 5 µM. One may read the LC50 as the concentration lethal to half of the exposed cells or organisms. As for `Cc1[nH]c2ccc(Br)cc2c1C`, in series [13], the LC90 was 14.74 µM and the LC50 amounted to 10.6 µM. In [1], `COc1cccc(Nc2ccnc3ccc(C(F)(F)F)cc23)c1` had an EC50 of 0.82 µM.

In series [9], `O=C1N/C(=N\c2nnc(-c3ccccc3Cl)s2)S/C1=C\c1cccc(F)c1` returned an IC50 of 2.1 µM. In the case of `O=C1N/C(=N\c2nnc(-c3cccnc3)s2)S/C1=C\c1cccc(F)c1`, the half-inhibitory concentration (IC50) in series [9] was found to be 5.5 µM. Still for that read-out and setting: for `O=C1N/C(=N\c2nnc(-c3ccccc3F)s2)S/C1=C\c1cccc(F)c1` the value was 7.2 µM. With `CS(=O)(=O)N1CCN(c2nnc(-c3ccc(Br)cc3)o2)C1=O`, the Activity in series [4] was determined as 86.7%. Moreover, the LD50 in series [5] worked out at 3.55 µg. `CS(=O)(=O)N1CCN(c2nnc(-c3ccccc3)o2)C1=O`: in series [4], the Activity came to 73.3%.

Regarding `Cc1cc([N+](=O)[O-])ccc1-n1sc2ccccc2c1=O`, the inhibition in series [11] turned out to be 92%. Molecule `COc1ccc([C@@H]2N(Nc3ccc([N+](=O)[O-])cc3)C(=O)[C@@H]3Cc4ccccc4N23)cc1OC` showed an EC50 in series [14] of 9.35 µM. `O=c1c2ccccc2sn1-c1ccc(Br)cc1` displayed an inhibition in series [11] of 80%. As for `Cc1[nH]c2c(C(=O)O)cccc2c1C`, in series [13], the LC90 is greater than 528.51 µM and the median lethal concentration (LC50) is greater than 854 µM. `Cc1ccc(S(=O)(=O)Nc2ccc(-c3nnc(SCc4cccc(C(F)(F)F)c4)o3)cc2)cc1` displayed an inhibition in series [2] of 80.4%. In series [3], this molecule gave an IC50 of 23.9 µM. For `Cc1ccc(S(=O)(=O)Nc2ccc(-c3nnc(SCc4ccc(C(F)(F)F)cc4)o3)cc2)cc1`, the inhibition in series [2] stood at 83.9%. Besides, inhibition in series [3] was half-maximal at 25.2 µM (IC50).

`CNc1cccc(Nc2ccnc3ccc(Br)cc23)c1`: the midpoint of the response in series [1], the EC50, lay at 0.24 µM. As for `O=c1c2ccccc2sn1-c1ccccc1Cl`, in [11], the inhibition stood at 94%.

With `FC(F)(F)Oc1ccccc1Nc1nccc(Nc2ccc(C(F)(F)F)cc2)n1`, the IC50 in series [15] is 5 µM. `Fc1cc2cn[nH]c2cc1Nc1ccnc2ccc(Br)cc12`: in series [1], the midpoint of the response, the EC50, lay at 0.69 µM and it took 4 µM to reach the 90% level (EC90).

On to `CC(C)(C)[Si](C)(C)Oc1ccc(C2N(Nc3ccc([N+](=O)[O-])cc3)C(=O)[C@@H]3Cc4ccccc4N23)cc1` (stereo not given in full), for which it took 4.79 µM to reach a half-maximal effect in series [14] (EC50). For `OCCN1CCN(c2nccc(Nc3ccc(-c4ccccc4)cc3)n2)CC1`, in [13], the LC90 is 30.13 µM and the LC50 came to 19.9 µM.

`O=C1N/C(=N\c2nnc(-c3cccc(F)c3)s2)S/C1=C\c1cccc(F)c1` registered an IC50 in series [9] of 2.3 µM. Take `O=C(NO)c1ncc(CS(=O)(=O)c2ccccc2)c(CO)c1O`: the IC50 stood at 5.7 µM in series [16], 6 µM in [17], 6.7 µM in [18] and 5 µM in series [19]. For the same molecule, the EC50 in series [20] was 2.7 µM; in series [21], 2.8 µM; in series [22], 2.7 µM; in series [23], 2.2 µM.

Regarding `FC(F)(F)Oc1cccc(Nc2ccnc(Nc3cccc(OC(F)(F)F)c3)n2)c1`, in series [24], the IC50 stood at 5 µM. In the case of `Cc1ccc(-c2nc3nc4c(c(N5CCN(Cc6ccc7c(c6)OCO7)CC5)n3n2)CCC4)cc1`, in series [25], the EC50 came out at 4.5 µM. In series [26], the CC50 at 48 h turned out to be 66 µM. Further, the selectivity ratio in series [27] worked out at 14.7. As for `Cc1cc(OC(F)(F)F)ccc1Nc1ccnc(Nc2ccccc2OC(F)(F)F)n1`, in series [10], the IC50 was found to be 5 µM.
